Columns and labels:
[1] = tested on: release of norepinephrine; settings: 0.1, 1.0 and 10.0 μg/ml; Bhatnagar, Pande et al. 1985; cited from earlier work
α2 adrenergic receptors = test: Centhaquin resuscitation with and without α2 adrenergic antagonists: arterial blood hematocrit, pH, gases, electrolytes, lactate; assay type: in vivo, rat; design: pCO2 / pO2 / Na+ / K+ / Ca++ / Lactate: unit not given beside the values
[2] = tested on: urethane anesthetized rats and conscious freely moving cats and rats; settings: 0.05 to 0.2 mg/kg, iv; Srimal, Gulati et al. 1990; cited from earlier work
[3] = tested on: right auricle of guinea pig; settings: Srimal, Mason et al. 1990, cited from earlier work
[4] = tested on: endothelin A (ETA) receptors; test: Expression of ETA receptors in blood vessels after intravenous administration; assay type: in vivo, rat; settings: intravenous administration in rats
hemorrhaged rats [5] = test: Norepinephrine required to maintain MAP at 70 mmHg in hemorrhaged rats; assay type: in vivo, rat; settings: 0.05 mg/kg
Procedure: In another study, the effect of centhaquin resuscitation on the amount of norepinephrine (NE) required to maintain mean arterial pressure (MAP) and the time by which MAP falls back to 35 mmHg in hemorrhaged rats was determined. Male, adult rats were anesthetized with urethane and a pressure catheter SPR-320 was placed in the femoral artery, and a pressure-volume catheter SPR-869 was placed in the left ventricle. Hemorrhage was induced by withdrawing blood and MAP was maintained at 35 mmHg for 30 minutes followed by resuscitation.
Two sets of experiments were performed. First, the amount of NE required to maintain MAP at 70 mmHg in normal saline (NS) or centhaquin (0.05 mg/kg) treated rats (volume equal to blood loss) was determined. Second, the time by which MAP fell back to 35 mmHg in rats treated with 3% hypertonic saline (HS) or centhaquin (0.05 mg/kg) (volume one-fifth of blood loss) was determined. […] In a second set of experiments, hemorrhaged rats were resuscitated with either HS or centhaquin (one-fifth the volume of blood loss).

hemorrhaged rats [6] = test: Initial experiments in hemorrhaged rats with 0.45 mg/kg centhaquin; assay type: in vivo, rat
Procedure: Initial experiments in hemorrhaged rats were performed with a 0.45 mg/kg dose of centhaquin. […] Centhaquin (0.45 mg/kg) produced a decrease in HR (beats/min) from 368±12 at hemorrhage, to 306±6, 309±6 and 274±11 at 30, 60 and 120 min, respectively, following resuscitation; cardiac output (mL) increased from 32±6 at hemorrhage, to 77±3, 74±4 and 62±5 at 30, 60 and 120 min, respectively, following resuscitation; while systemic vascular resistance (dynes*sec/cm5) was 84±4 at hemorrhage, and fell to 39±9, 42±9 and 45±6 at 30, 60 and 120 min, respectively, following resuscitation.

[7] = 120 min following resuscitation

## Cc1cccc(N2CCN(CCc3ccc4ccccc4n3)CC2)c1 [centhaquin, 2-[2-(4-(3-methyphenyl)-1-piperazinyl)ethyl]-quinoline]
[1]
  norepinephrine release evoked by potassium chloride and dimethyl phenyl piperazinium chloride: inhibited
  spontaneous release of norepinephrine: initial increase, followed by a decrease
α2 adrenergic receptors; Baseline
  Ca++: 1.15 ± 0.02
  Hematocrit: 54.67 ± 2.03
  K+: 2.73 ± 1.07
  Lactate: 3.17 ± 0.24
  Na+: 134.33 ± 0.88
  pCO2: 46.33 ± 1.67
  pH: 7.34 ± 0.01
  pO2: 118.33 ± 6.77
α2 adrenergic receptors; Hemorrhage
  Ca++: 1.22 ± 0.00
  Hematocrit: 37.67 ± 2.33
  K+: 5.73 ± 0.30
  Lactate: 10.10 ± 0.70
  Na+: 124.33 ± 1.86
  pCO2: 27.33 ± 1.20
  pH: 7.24 ± 0.02
  pO2: 124.00 ± 4.73
α2 adrenergic receptors; Resuscitation 30 min
  Ca++: 1.17 ± 0.02
  Hematocrit: 33.00 ± 1.53
  K+: 4.73 ± 0.09
  Lactate: 5.80 ± 0.32
  Na+: 130.00 ± 0.08
  pCO2: 33.00 ± 0.58
  pH: 7.29 ± 0.01
  pO2: 124.00 ± 4.51
α2 adrenergic receptors; Resuscitation 60 min
  Ca++: 1.18 ± 0.03
  Hematocrit: 32.67 ± 1.76
  K+: 4.60 ± 0.00
  Lactate: 4.53 ± 0.38
  Na+: 128.00 ± 1.00
  pCO2: 33.33 ± 0.33
  pH: 7.31 ± 0.01
  pO2: 121.67 ± 4.63
α2 adrenergic receptors; Resuscitation 120 min
  Ca++: 1.18 ± 0.01
  Hematocrit: 33.67 ± 2.03
  K+: 5.17 ± 0.15
  Lactate: 5.67 ± 0.22
  Na+: 130.33 ± 0.33
  pCO2: 29.00 ± 1.15
  pH: 7.28 ± 0.01
  pO2: 132.00 ± 6.69
[2]
  mean arterial pressure (MAP) and heart rate (HR): dose-dependent decrease
[3]
  effect on positive inotropic effect of norepinephrine: significantly potentiated
[3]; up to a concentration of 2 μg/ml
  spontaneous contraction of the right auricle: not affected
[4]
  expression of endothelin A (ETA) receptors in the blood vessels: increase the expression
Hemorrhaged rats [5]; 60 min following resuscitation, volume equal to blood loss
  Blood lactate: 1.65 ± 0.23 mmol/L
Hemorrhaged rats [5]; first 60 min of resuscitation
  amount of NE needed in each rat to maintain MAP at 70 mmHg: 17.5 µg
Hemorrhaged rats [6]; 30 min following resuscitation
  HR: 306±6 beats/min
  MAP: 38±4 mmHg
  cardiac output: 77 ± 3 mL
  systemic vascular resistance: 39±9 dynes*sec/cm5
Hemorrhaged rats [6]; 60 min following resuscitation
  HR: 309±6 beats/min
  MAP: 39±4 mmHg
  cardiac output: 74 ± 4 mL
  systemic vascular resistance: 42±9 dynes*sec/cm5
Hemorrhaged rats [6]; [7]
  HR: 274±11 beats/min
  MAP: 35±4 mmHg
  cardiac output: 62 ± 5 mL
  systemic vascular resistance: 45±6 dynes*sec/cm5
Hemorrhaged rats [6]; at hemorrhage
  HR: 368±12 beats/min
  cardiac output: 32 ± 6 mL
  systemic vascular resistance: 84±4 dynes*sec/cm5

— patent US20150250782A1, “Methods and Compositions for Hypotensive Resuscitation” (Pharmazz, Inc., priority 2012, published 2015)
